Assays:
Treg cells = assay: Treg proliferation and expansion in mice after a single s.c. injection of bifunctional constructs (Example 17); type: in vivo, mouse; settings: 15 nmol/kg single s.c., C57/BL6 mice
Description: IL-2 variant tocilizumab bifunctional proteins P-0536, P-0546, P-0559, and P-0560 along with IL-2 variant Fc fusion protein P-0511 were administered to mice, and their ability to preferentially proliferate and expand regulatory T cells (CD4+CD25+FoxP3+ T cells) over effector T cells and NK cells were determined in vivo.
Female C57/BL6 mice (7-week old) were received from Charles River Laboratory and acclimated in house for at least 7 days before the study. Vehicle (PBS) and 15 nmol/kg each test compounds were subcutaneously administered to mice on day 0. Peripheral blood samples were collected into heparin-treated tubes on days 2, 4 and 8 post-treatment. Each group contained 5 mice and baseline blood was collected 3 days prior to the treatment (day −3).

[1] = Aggregate content by size-exclusion chromatography after Protein A purification; type: physicochemical; settings: Isoleucine-125 constructs; after MabSelectSure
Description: For affinity chromatography each supernatant was loaded on a HiTrap MabSelectSure column (CV=5 mL, GE Healthcare) equilibrated with 25 ml phosphate buffered saline, pH 7.2 (ThermoFisher). Unbound protein was removed by washing with 5 column volumes PBS, pH 7.2 and target protein was eluted with 25 mM sodium citrate, 25 mM sodium chloride, pH 3.2. Protein solution was neutralized by adding 3% of 1 M Tris pH 10.2. Ion exchange chromatography or mix-mode chromatography, including but not limited to CaptoMMC (GE Healthcare), ceramic hydroxyapatite, or ceramic fluoroapatite (Bio-Rad) was also utilized to polish the Protein A material as needed. Target protein was concentrated with an Amicon®Ultra-15 concentrator 10 KDa NMWC (Merck Millipore Ltd.)
The purity and molecular weight of the purified constructs were analyzed by SDS-PAGE with and in the absence of a reducing agent and staining with Coomassie (Imperial® Stain). The NuPAGE® Pre-Cast gel system (4-12% or 8-16% Bis-Tris, ThermoFisher) was used according to the manufacturer's instructions. The protein concentration of purified protein samples was determined by measuring the UV absorbance at 280 nm (Nanodrop Spectrophotometer, ThermoFisher) divided by the molar extinction coefficient calculated on the basis of the amino acid sequence. The aggregate content of the constructs was analyzed on an Agilent 1200 high-performance liquid chromatography (HPLC) system. Samples were injected onto an AdvanceBio size-exclusion column (300 Å, 4.6×150 mm, 2.7 μm, LC column, Agilent) using 150 mM sodium phosphate, pH 7.0 as the mobile phase at 25° C.
S125I substitution was thus introduced into a number of IL-2 variant Fc fusion molecules. The constructs harboring Ile-125 substitution in IL-2 were expressed using the same vector and in the same culturing conditions as their Ser-125 counterparts and purified using MabSelectSure. The expression level in mg/L and purity assessed by SEC chromatography in aggregation % of exemplary molecules are summarized in Table 6. The two molecules in the same row of Table 6 share the same other amino acid substitution(s) and differ only at residue 125 with either serine or isoleucine. As an example, the SEC chromatogram and SDS-PAGE pictures of P-0447 (SEQ ID NO: 173) and its Ile-125 counterpart P-0511 (SEQ ID NO: 213) were further illustrated in FIGS. 1D and 1E.

[2] = tested on: KLH-induced DTH in Balb/C mice; assay: KLH-induced delayed-type hypersensitivity (DTH) mouse model, ear thickness; type: in vivo; settings: for inhibition of ear inflammation (separate study): Q5D
Description: The ability of Treg cells induced by IL-2 variants to suppress T cell antigen-driven inflammation in vivo was assessed in a model of delayed-type hypersensitivity (DTH). Female Balb/C mice (7-week old) were acclimated in house for 7 days and randomized into groups. Subcutaneous administration of vehicle (PBS), P-0511 at either 0.1 mg/kg or 0.3 mg/kg was initiated on day −2 and was given either once every 3 days (Q3D) for three injections or once every 5 days (Q5D) for two injections. Mice were then sensitized with a subcutaneous administration of 100 μg keyhole limpet hemocyanin (KLH) in 200 μl saline on day 0. For Q3D dosing, two more subcutaneous injections of PBS or P-0511 (0.1 or 0.3 mg/kg) were administered on days 1, and 4; for Q5D dosing, one additional s.c. injection of PBS, 0.1 or 0.3 mg/kg P-0511 was administered on day 3. Mice received an intradermal challenge of KLH (5 μg in 10 μl saline) in right ear on day 5. Right ear thickness was measured using a caliper on day 5 prior KLH challenge and daily from day 6 to day 9 corresponding to 24 h, 48 h, 72 h and 96 h post KLH challenge. One group of mice also received 5 mg/kg daily i.p. treatment of dexamethasone from day 5 to day 8 as a positive control.
Kinetics of the DTH response using the change in ear thickness relative to baseline values (Δ ear thickness) at various times after KLH challenge was illustrated in FIG. 23.

[3] = tested on: STAT5 phosphorylation in CD8+ T cells; assay: STAT5 phosphorylation in CD8+ T cells, human PBMC; type: cell-based
Text: The Stat5 phosphorylation activity on other responder cells than CD4+ T cell subsets, including CD8+T and NK, by P-0511 was compared to P-0531, the S125I equivalent of wild-type P-0250. […] IL-2 receptors expressed on CD4+ Tconv, CD8+T and NK cells are primarily dimeric IL-2Rs, comprising IL-2R6 and γc.

Substance: P-0511: IL-2 L19H/S125I/Q126E Fc fusion, SEQ ID NO: 213
- potency in inducing Treg cell proliferation and expansion in vivo (in words) (Treg cells): comparable in vivo Treg stimulation efficacy as P-0560
- Aggregation % (SEC) [1]: 0.7%
- suppression of DTH ear swelling ([2]; 0.1 mg/kg s.c., Q3D and Q5D): did not reach statistical significance at most of the time points
- inhibition of ear inflammation (separate study) ([2]; 0.1 mg/kg): mild
- inhibition of ear inflammation (separate study) ([2]; 0.3 mg/kg): Intermediate
- inhibition of ear inflammation (separate study) ([2]; 1 mg/kg): strong resistance to KLH-induced DTH
- STAT5 phosphorylation activity in CD8+ T cells (in words) [3]: nearly completely abolished

— US20220170028A1, “NOVEL INTERLEUKIN-2 VARIANTS AND BIFUNCTIONAL FUSION MOLECULES THEREOF” (Cugene Inc, priority 2019, published 2022)
